Measurements as given in ChEMBL document CHEMBL3259674, “Structure-Activity Relationship of Semicarbazone EGA Furnishes Photoaffinity Inhibitors of Anthrax Toxin Cellular Entry” (ACS Med Chem Lett, 2014).
Activity calls are given as the source filed them. The rule behind the calls is not given here.

Key:
[1] = target: T1, Antrax lethal toxin (Bacillus anthracis) (UniProt P15917+P13423); conditions: RAW264.7, at 25 µM
[2] = target: T1, Antrax lethal toxin (Bacillus anthracis); assay: Irreversible inhibition of Bacillus anthracis lethal toxin-induced mouse RAW264.7 cell death at 25 uM preincubated for 1 hr followed by UV irradiation measured after 5 mins; format: protein-complex assay
[3] = target: T1, Antrax lethal toxin (Bacillus anthracis); assay: Reversible inhibition of Bacillus anthracis lethal toxin-induced mouse RAW264.7 cell death at 25 uM preincubated for 1 hr followed by compound washout measured 4 hrs post lethal toxin challenge; format: protein-complex assay
[4] = target: T1, Antrax lethal toxin (Bacillus anthracis); assay: Irreversible inhibition of Bacillus anthracis lethal toxin-induced mouse RAW264.7 cell death at 12.5 uM preincubated for 1 hr followed by UV irradiation measured after 5 mins; format: protein-complex assay
[5] = target: T1, Antrax lethal toxin (Bacillus anthracis); assay: Reversible inhibition of Bacillus anthracis lethal toxin-induced mouse RAW264.7 cell death at 12.5 uM preincubated for 1 hr followed by compound washout measured 4 hrs post lethal toxin challenge; format: protein-complex assay

| SMILES | inhibition [1] | further results |
| --- | --- | --- |
| COc1cc(OC)c(/C=N/NC(=O)Nc2c(C)cccc2C)c(OC)c1 | inactive | – |
| Cc1cccc(C)c1NC(=O)N/N=C/c1c(F)c(F)c(N=[N+]=[N-])c(F)c1F | – | inhibition [2]: Active; inhibition [3]: Active |
| O=C(N/N=C/c1ccc(Cl)cc1)Nc1ccccc1 | inactive | – |
| COc1cccc(/C=N/NC(=O)Nc2c(C)cccc2C)c1OC | inactive | – |
| Cc1cccc(C)c1NC(=O)N/N=C/c1ccncc1 | inactive | – |
| Cc1cccc(C)c1NC(=S)N/N=C/c1c(F)cc(Br)cc1F | inactive | – |
| CC(C)(C)NC(=O)N/N=C/c1ccc(Br)cc1 | inactive | – |
| Cc1cccc(C)c1NC(=O)N/N=C/c1ccc(N=[N+]=[N-])cc1F | – | inhibition [4]: inactive; inhibition [5]: Active |
| Cc1ccccc1/C=N/NC(=O)Nc1c(C)cccc1C | inactive | – |
| Cc1cccc(C)c1NC(=O)N/N=C/c1ccco1 | inactive | – |
| Cc1cccc(C)c1NC(=O)N/N=C/c1ccc(N=[N+]=[N-])cc1 | – | inhibition [2]: Active; inhibition [3]: Active |
| Cc1ccc(NC(=O)N/N=C/c2ccc(Br)cc2)c(C)c1 | inactive | – |
| Cc1cccc(C)c1NC(=O)N/N=C/c1ccccc1 | inactive | – |
| Cc1cccc(C)c1NC(=O)NN | inactive | – |
| C#CCN(/N=C/c1ccc(N=[N+]=[N-])cc1)C(=O)Nc1c(C)cccc1C | inactive | – |
| Cc1cccc(C)c1NC(=O)N/N=C/c1cccc(C(F)(F)F)c1Cl | inactive | – |
| Cc1cccc(C)c1NC(=O)N/N=C/c1ccc(NS(C)(=O)=O)cc1 | inactive | – |
| Cc1cccc(C)c1NC(=S)N/N=C/c1ccc(Br)cc1F | inactive | – |
